Results: PubChem BioAssay AID1259407 (Chemical Carcinogenesis Research Information System (CCRIS), 2018)
The source made the active and inactive calls. How the calls were made is not given here.

Tested on: CCRIS mutagenicity, Ames/micronucleus/aberration tests
Test: CCRIS mutagenicity studies

Question: Which mutagenic call (Test System: AMES SALMONELLA TYPHIMURIUM, Strain/Indicator: TA100, Metabolic Activation: RAT, LIVER, S-9, AROCLOR 1254 OR PHENOBARBITOL, Method: STANDARD PLATE) does the source give for Nc1ccc2cc3ccccc3cc2c1 here?
Answer: active; positive

Question: What about the mutagenic call (Test System: AMES SALMONELLA TYPHIMURIUM, Strain/Indicator: TA100, Metabolic Activation: RAT, LIVER, S-9, PHENOBARBITAL, Method: STANDARD PLATE) of the same compound?
Answer: active; positive

Question: And the mutagenic call (Test System: AMES SALMONELLA TYPHIMURIUM, Strain/Indicator: TA1535 (PSK1002), Metabolic Activation: RAT, LIVER, S-9, AROCLOR 1254, Method: PREINCUBATION)?
Answer: active; positive

Question: And the mutagenic call (Test System: AMES SALMONELLA TYPHIMURIUM, Strain/Indicator: TA1535, Metabolic Activation: NONE, Method: SPIRAL ASSAY)?
Answer: inactive; negative

Question: And the mutagenic call (Test System: AMES SALMONELLA TYPHIMURIUM, Strain/Indicator: TA1535, Metabolic Activation: RAT, LIVER, S-9, AROCLOR 1254 (2%), Method: STANDARD PLATE)?
Answer: inactive; negative

Question: And the mutagenic call (Test System: AMES SALMONELLA TYPHIMURIUM, Strain/Indicator: TA1535, Metabolic Activation: RAT, LIVER, S-9, AROCLOR 1254, Method: SPIRAL ASSAY)?
Answer: active; positive

Question: And the mutagenic call (Test System: AMES SALMONELLA TYPHIMURIUM, Strain/Indicator: TA1535, Metabolic Activation: RAT, LIVER, S-9, AROCLOR 1254, Method: STANDARD PLATE)?
Answer: active; positive

Question: And the mutagenic call (Test System: AMES SALMONELLA TYPHIMURIUM, Strain/Indicator: TA1535, Metabolic Activation: RAT, LIVER, S-9, AROCLOR 1254 OR PHENOBARBITOL, Method: STANDARD PLATE)?
Answer: active; positive

Question: What about the mutagenic call (Test System: AMES SALMONELLA TYPHIMURIUM, Strain/Indicator: TA1535, Metabolic Activation: RAT, LIVER, S-9, PHENOBARBITAL, Method: STANDARD PLATE) of the same compound?
Answer: active; positive

Question: What about the mutagenic call (Test System: AMES SALMONELLA TYPHIMURIUM, Strain/Indicator: TA1537, Metabolic Activation: NONE, Method: SPIRAL ASSAY) of the same compound?
Answer: inactive; negative

Question: What about the mutagenic call (Test System: AMES SALMONELLA TYPHIMURIUM, Strain/Indicator: TA1537, Metabolic Activation: NONE, Method: STANDARD PLATE) of the same compound?
Answer: inactive; negative

Question: What about the mutagenic call (Test System: AMES SALMONELLA TYPHIMURIUM, Strain/Indicator: TA1537, Metabolic Activation: RAT, LIVER, S-9, AROCLOR 1254 (2%), Method: STANDARD PLATE) of the same compound?
Answer: active; positive

Question: What about the mutagenic call (Test System: AMES SALMONELLA TYPHIMURIUM, Strain/Indicator: TA1537, Metabolic Activation: RAT, LIVER, S-9, AROCLOR 1254, Method: SPIRAL ASSAY) of the same compound?
Answer: active; positive

Question: And the mutagenic call (Test System: AMES SALMONELLA TYPHIMURIUM, Strain/Indicator: TA1537, Metabolic Activation: RAT, LIVER, S-9, AROCLOR 1254, Method: STANDARD PLATE)?
Answer: active; positive

Question: And the mutagenic call (Test System: AMES SALMONELLA TYPHIMURIUM, Strain/Indicator: TA1537, Metabolic Activation: RAT, LIVER, S-9, AROCLOR 1254 OR PHENOBARBITOL, Method: STANDARD PLATE)?
Answer: active; positive

Question: What about the mutagenic call (Test System: AMES SALMONELLA TYPHIMURIUM, Strain/Indicator: TA1538, Metabolic Activation: NONE, Method: STANDARD PLATE) of the same compound?
Answer: inactive; negative

Question: And the mutagenic call (Test System: AMES SALMONELLA TYPHIMURIUM, Strain/Indicator: TA1538, Metabolic Activation: RAT, LIVER, S-9, AROCLOR 1254, Method: STANDARD PLATE)?
Answer: active; positive

Question: What about the mutagenic call (Test System: AMES SALMONELLA TYPHIMURIUM, Strain/Indicator: TA1538, Metabolic Activation: RAT, LIVER, S-9, AROCLOR 1254 OR PHENOBARBITOL, Method: STANDARD PLATE) of the same compound?
Answer: active; positive

Question: What about the mutagenic call (Test System: AMES SALMONELLA TYPHIMURIUM, Strain/Indicator: TA1538, Metabolic Activation: RAT, LIVER, S-9, PHENOBARBITAL, Method: STANDARD PLATE) of the same compound?
Answer: active; positive

Question: What about the mutagenic call (Test System: AMES SALMONELLA TYPHIMURIUM, Strain/Indicator: YG1012, Metabolic Activation: RAT, LIVER, S-9, PHENOBARBITAL AND 5,6-BENZOFLAVONE, Method: PREINCUBATION) of the same compound?
Answer: active; positive

Question: And the mutagenic call (Test System: AMES SALMONELLA TYPHIMURIUM, Strain/Indicator: YG1019, Metabolic Activation: RAT, LIVER, S-9, PHENOBARBITAL AND 5,6-BENZOFLAVONE, Method: PREINCUBATION)?
Answer: active; positive

Question: What about the mutagenic call (Test System: AMES SALMONELLA TYPHIMURIUM, Strain/Indicator: YG1020, Metabolic Activation: RAT, LIVER, S-9, PHENOBARBITAL AND 5,6-BENZOFLAVONE, Method: PREINCUBATION) of the same compound?
Answer: active; positive

Question: What about the mutagenic call (Test System: AMES SALMONELLA TYPHIMURIUM, Strain/Indicator: YG1024, Metabolic Activation: RAT, LIVER, S-9, PHENOBARBITAL AND 5,6-BENZOFLAVONE, Method: PREINCUBATION) of the same compound?
Answer: active; positive

Question: And the mutagenic call (Test System: AMES SALMONELLA TYPHIMURIUM, Strain/Indicator: YG1025, Metabolic Activation: RAT, LIVER, S-9, PHENOBARBITAL AND 5,6-BENZOFLAVONE, Method: PREINCUBATION)?
Answer: active; positive

Question: And the mutagenic call (Test System: AMES SALMONELLA TYPHIMURIUM, Strain/Indicator: YG1029, Metabolic Activation: RAT, LIVER, S-9, PHENOBARBITAL AND 5,6-BENZOFLAVONE, Method: PREINCUBATION)?
Answer: active; positive

Question: What about the mutagenic call (Test System: Ames Salmonella typhimurium, Strain/Indicator: YG7108pin3ERb5, Metabolic Activation: None, Method: Standard plate) of the same compound?
Answer: active; positive

Question: And the mutagenic call (Test System: CHINESE HAMSTER OVARY, Strain/Indicator: CHO-K1-BH4 (HGPRT), Metabolic Activation: RAT, LIVER, S-9, AROCLOR, Method: SUSPENSION/PLATE)?
Answer: active; positive

Question: What about the mutagenic call (Test System: E. COLI, Strain/Indicator: WP2 UVRA, Metabolic Activation: NONE, Method: STANDARD PLATE) of the same compound?
Answer: inactive; negative

Question: And the mutagenic call (Test System: MOUSE LYMPHOMA, Strain/Indicator: L5178Y (TK+/TK-), Metabolic Activation: NONE, Method: SUSPENSION/PLATE)?
Answer: inactive; negative

Question: What about the mutagenic call (Test System: MOUSE LYMPHOMA, Strain/Indicator: L5178Y (TK+/TK-), Metabolic Activation: RAT, LIVER, S-9, AROCLOR 1254, Method: SUSPENSION/PLATE) of the same compound?
Answer: active; positive
